Test results from patent EP0903346A1, “SYDNONE IMINE DERIVATIVES” (Chugai Seiyaku Kabushiki Kaisha, priority 1995, dated 1997).
Like-named read-outs stand apart in the source and are kept apart here.

What was measured:
[1] = test system: platelet rich plasma (PRP); experiment: Inhibitory effect on platelet aggregation in rabbit; assay type: cell-based; settings: Oryctolagus cuniculus, aggregation agent arachidonic acid, pre-incubated for 3 minutes, invention compound n = 1 - 3, aspirin n = 7, read-out: Rabbit antiplatelet aggregation effect IC50
Method: Male JW/CSK rabbits weighing 2.6 to 3.1 kg were anesthetized with thiopental (20 mg/kg). Then the blood of each animal was collected from the left carotid artery into a container containing a 3.8% solution of citric acid (9 : 1 v/v). The collected blood was immediately centrifuged at room temperature at 1,300 rpm (230 G) for 10 minutes to give a platelet rich plasma (PRP). Further, a required amount of the blood was centrifuged at 3,000 rpm (1,300 G) for 15 minutes to give a platelet poor plasma (PPP). The PRP to be used in the platelet aggregation test was diluted with PPP to adjust the platelet count to 3 x 10^8. The aggregability was measured by using a platelet aggregation measuring device (TE-500, ERMA) with the use of arachidonic acid ([…]) as an aggregation agent. Each test compound was mixed with PRP and pre-incubated for 3 minutes. Next, the aggregation agent was added thereto and the aggregability was measured for 5 minutes. Thus, the activity of the test compound was evaluated by determining the 50% inhibitory concentration (IC50; µM) thereof to the maximum aggregation induced by the arachidonic acid. As the test compounds, the compounds of the present invention obtained in the above Examples were employed. As a control drug, use was made of aspirin which has been widely known as a platelet aggregation inhinitor. Table E summarizes the results. Table E

[2] = test system: rat A-V shunt model; experiment: Effect on blood coagulability in rat A-V shunt model; assay type: in vivo; settings: 10 mg/kg p.o.; from 75 minutes to 2 hours after administration; mean ± S.E. (n = 6)
Method: Rat A-V shunts models were prepared by reference to the method of Umezu et al. (Thrombos Haemostas. 1978:39:74 - 83). Male SD rats were anesthetized with sodium pentobarbital (50 mg/kg, i.p.) and fixed in the supine position. A thick polyethylene tube (6 cm; Hibiki No. 7, Kunii Co.) containing a silk suture thread was connected at both ends to another thin polyethylene tube (10 cm, Hibiki No. 4, Kunii Co.) and then inserted into the left common carotid artery and the right internal jugular vein of the rat so as to form an external blood circulation system (A-V Shunt). The blood was circulated within the shunt system for 15 minutes and then the blood coagulates adhering to the silk suture thread in the thick tube was weighed. After repeating this operation thrice, the total weight was determined and the activity of each test compound was evaluated based thereon.
In this experiment, the anti-aggregation effects achieved from 75 minutes to 2 hours after the peroral administration were examined in a vehicle group (0.3% carboxymethyl cellulose, hereinafter referred to simply as CMC; n = 6), a group of the compound of Example 2 (10 mg/kg; n = 6) and a group of FK-409 (10 mg/kg; n = 6) which had been reported as being capable of inhibiting the formation of blood coagulates (European Journal of Pharmacology, 1995:272:39 - 43). Table F summarizes the results. Table F […]

[3] = test system: anesthetized rat; experiment: Blood pressure-lowering effect in anesthetized rat; assay type: in vivo; settings: duodenal administration; for Blood pressure-lowering effect ED30: dose causing a decrease in the blood pressure by 30%; for Blood pressure-lowering effect Half duration: half duration at ED30 (recovery to 50% of the maximum decrease in blood pressure)
Method: Male Sprague Dawley rats weighing 280 to 450 g were anesthetized with sodium pentobarbital (50 mg/kg, i.p.) and fixed in the supine position. A canula was inserted into the trachea of each animal. Then the blood pressure of the animal was measured (AP-621G, Nippon Kohden Corp.) through a polyethylene tube (PE50) inserted into the right femoral artery via a pressure transducer (Life Kit DTS, DX-300, Nippon Kohden Corp.) and the heart rate was determined from the pulse wave (AT-610G, Nippon Kohden Corp.). A canula (PE10) for injecting the maintenance anesthetic drug (sodium pentobarbital 20 mg/kg/h) was inserted into the right femoral vein. The abdominal region was medianly sectioned and a canula (PE50 connected to a injection needle 23G) for duodenal drug administration was inserted thereinto and fixed with Aronalpha for surgical use. After 60-90 minutes of recovery period, the drug was administered into duodenum. After administering the drug, the blood pressure was measured until the average blood pressure returned to the level before the administration.
As the indication of the blood pressure-lowering effect of each drug, the dose causing a decrease in the blood pressure by 30%, based on the level before the administration, was calculated from the dose-response curve and employed as the 30% effective dose (ED30). Moreover, the time required for the recovery to the level corresponding to 50% of the maximum decrease in the blood pressure (half duration) was measured at each dose. Then the half duration at the above-mentioned ED30 was calculated and employed as the indication of the lasting time of the blood pressure-lowering effect (half duration at ED30).
As the test compounds, use was made of the compounds of the present invention obtained in the above Examples. Table C summarizes the results. Table C

[4] = test system: isolated rat aorta; experiment: Test with the use of isolated rat aorta (relaxation of potassium chloride contraction); settings: read-out: Rat aorta IC50
Method: The thoracic aorta was taken out from male Sprague Dawley rats weighing 450 to 600 g and cut into circular samples of 2 mm in width. […] The contraction reactions of the samples were isometrically recorded with FD pick-up. After 1 to 1.5 hours of equilibration, 30 mM potassium chloride was added to contract the tissue. […] As the test compounds, the invention compounds obtained in the above Examples were employed.

[5] = test system: rat ischemia-reperfusion model; experiment: Myocardial necrosis inhibitory effect in rat ischemia-reperfusion model; assay type: in vivo; set-up: LDH / CK: unit not given here; settings: mean ± standard error; for NA/RA: necrosis area/risk area; for CK: serum creatine kinase activity after reflow; for LDH: serum lactate dehydrogenase activity after reflow
Method: Male Sprague Dawley rats weighing 270 to 410 g were anesthetized with sodium pentobarbital (50 mg/kg, i.p.) and fixed in the supine position. A canula was inserted into the trachea of each animal. Then the blood pressure of the animal was measured (AP-621G, Nippon Kohden Corp.) through a polyethylene tube (PE50, Becton Dickinson) inserted into the right femoral artery via a pressure transducer (Life Kit DTS, DX-300, Nippon Kohden Corp.) and the heart rate was determined from the pulse wave (AT-610G, Nippon Kohden Corp.). Two canulae (PE10 and PE50, Becton Dickinson) for injecting the maintenance anesthetic drug (sodium pentobarbital 20 mg/kg/h) and a coloring matter respectively were inserted into the right jugular vein. The left jugular vein was exposed for blood collection. The chest was opened by vertically sectioning the chest region from the third to fifth left ribs about 10 mm apart from the median line under artificial respiration with room air (Harvard respirator, model 683, rate : 60 strokes/min. tidal volume : 10 ml/kg body weight). Then the operative field was enlarged with a wound retractor and the heart sac was peeled off to thereby expose the heart. By using a curved round needle with thread for vascular tract (8mm, 6-0 black blaid silk, Matsuda Medical Industry), a thread of 4 to 5 mm in length was put in the left ventricle in the depth of 2 mm for ligating the coronary artery. After the completion of the operation, the animal was allowed to stand as such for 20 minutes or longer. After confirming that the blood pressure and the heart rate had been stabilized, the experiment was initiated.
In this experiment, use was made of eight groups of rats including: 1) a physiological saline (i.e., the solvent for SIN-1) group; 2) an SIN-1 (3 µg/kg/min) group; 3) another SIN-1 (10 µg/kg/min) group; 4) 1% DMSO-containing physiological saline (adjusted to pH 5 with hydrochloric acid, i.e., the solvent for the compounds of Examples 1 and 2) group; 5) a group of the compound of Example 1 (10 µg/kg/min); 6) another group of the compound of Example 1 (30 µg/kg/min); 7) a group of the compound of Example 2 (3 µg/kg/min); and 8) another group of the compound of Example 2 (10 µg/kg/min). Each drug was intravenously administered continuously for 75 minutes (from 15 minutes before the ligation of the coronary artery to the completion of the reflow) at a rate of 0.95 ml/h. Fifteen minutes after the initiation of the drug administration, the coronary artery was ligated and maintained for 30 minutes. The coronary artery was ligated by the snare method with the use of a polyethylene tube (PE160, Becton Dickinson) and a vascular clamp (C-17 grooved, Natsume). After 30-minutes reflow, the risk area (RA) and the necrosis area (NA) were measured.
The risk area and the necrosis area formed by ligating the coronary artery were measured by the double staining method with Evans blue and triphenyltetrazolium chloride (TTC) in the following manner. To clarify the risk area, the coronary artery was ligated again after the completion of the reflow. Subsequently, 1 ml of 5% Evans blue (Sigma) and a 1 M solution of KCl were successively injected into the jugular vein until the heart arrest. Thus, the non-risk area was stained dark blue. After the heart arrest, the heart was quickly taken out and washed with physiological saline. Then the left ventricle was separated and cut into circular slices of 3 mm in width with a trimming blade (Feather). To decide the necrosis area, these slices were incubated in a 0.1 M phosphate buffer (81 mM Na2HPO4: 19 mM NaH2PO4, pH 7.4) containing 1% TTC at 37°C for 5 minutes. Thus, living cells were exclusively stained red with TTC while the necrosis area was not stained. After staining with TTC, each wet slice was weighed, fixed with 20% formalin and then photographed while allowing to stand in physiological saline. […]

[6] = 3 µg/kg/min intravenously for 75 minutes
[7] = 10 µg/kg/min intravenously for 75 minutes
[8] = 30 µg/kg/min intravenously for 75 minutes

In the case of CCN1CCN([n+]2cc([N-]C(=O)CSC(=O)C3(C)CCc4c(C)c(O)c(C)c(C)c4O3)on2)CC1 (stereo not shown) [Example 192, N-((6-Hydroxy-2,5,7,8-tetramethylchroman-2-carbonylthio)acetyl)-3-(4-ethylpiperazin-1-yl)sydnonimine], the IC50 [1] is reported as 3.9 µM.
CC(C)N1CCN([n+]2cc([N-]C(=O)CSC(=O)c3ccccc3)on2)CC1 [Example 88, N-(Benzoylthioacetyl)-3-(4-isopropylpiperazin-1-yl)sydnonimine] showed an IC50 [1] of 1.1 µM.
CN1CCN([n+]2cc([N-]C(=O)CCSC(=O)c3ccc(F)cc3)on2)CC1 [Example 135, N-(3-(4-Fluorobenzoylthio)propionyl)-3-(4-methylpiperazin-1-yl)sydnonimine] gave an IC50 [1] of 12.9 µM.
CN1CCN([n+]2cc([N-]C(=O)CSC(=O)c3ccccc3)on2)CC1 [Example 3, N-((Benzoylthio)acetyl)-3-(4-methylpiperazin-1-yl)sydnonimine] showed an IC50 [1] of 2.7 µM.
For CC/C(=C\C(=N/O)C(N)=O)C(C)[N+](=O)[O-] (stereo not shown) [FK409], the “Blood coagulability in rat A-V shunt model p.o. administration; wt. (mg) of coagulates” value [2] was 89.17 ± 8.43 mg.
Cl.N=c1c[n+](N2CCOCC2)[n-]o1 [SIN-1, 3-morpholinosydnonimine hydrochloride, reference compound] was tested, and the “Blood pressure-lowering effect ED30” value [3] was 1.0 mg/kg, the “Blood pressure-lowering effect Half duration” value [3] was 75 min and the IC50 ([4]; relaxation of continuous contraction due to 30 mM potassium chloride, thoracic aorta of male Sprague Dawley rats) was 0.85 µM. For the same compound, the NA/RA [5, 6] was 18.5±4.3%, the CK [5, 6] was 3138±207 and the LDH [5, 6] was 1082±60. The NA/RA [5, 7] was 19.3±5.2%, the CK [5, 7] was 2853±507 and the LDH [5, 7] was 1196±166.
With COc1ccc(C(=O)SCCC(=O)[N-]c2c[n+](N3CCN(C)CC3)no2)cc1 [Example 139, N-(3-(4-Methoxybenzoylthio)propionyl)-3-(4-methylpiperazin-1-yl)sydnonimine] the IC50 [1] was 15.8 µM.
For CN1CCN([n+]2cc([N-]C(=O)CSc3cc(C(C)(C)C)c(O)c(C(C)(C)C)c3)on2)CC1 [Example 1, N-((3,5-Di-t-butyl-4-hydroxyphenylthio)acetyl)-3-(4-methylpiperazin-1-yl)sydnonimine], the “Blood pressure-lowering effect ED30” value [3] was 5.5 mg/kg, the “Blood pressure-lowering effect Half duration” value [3] was 151 min and the IC50 [4] was 0.65 µM. For the same compound, the NA/RA [5, 7] was 33.4±6.1%, the CK [5, 7] was 3237±803 and the LDH [5, 7] was 1538±254. The NA/RA [5, 8] was 22.3±6.1 p<0.01 vs. 4%, the CK [5, 8] was 2772±496 and the LDH [5, 8] was 1339±343.
CC(=O)SCC(=O)[N-]c1c[n+](N2CCN(C(C)C)CC2)no1 [Example 86, N-(Acetylthioacetyl)-3-(4-isopropylpiperazin-1-yl)sydnonimine] showed an IC50 [1] of 1.3 µM.
CCN1CCN([n+]2cc([N-]C(=O)[C@H](C)CSC(=O)c3ccccc3)on2)CC1 [Example 68, N-((S)-3-(Benzoylthio)isobutyryl)-3-(4-ethylpiperazin-1-yl)sydnonimine] gave an IC50 [1] of 10.5 µM.
For C[C@H](CSC(=O)c1ccccc1)C(=O)[N-]c1c[n+](N2CCN(C)CC2)no1 [Example 2, N-((S)-3-(Benzoylthio)isobutyryl)-3-(4-methylpiperazin-1-yl)sydnonimine], the IC50 [1] was 15.8 µM.
For CC(=O)Oc1ccccc1C(=O)O [aspirin, reference compound], the IC50 [1] was 27.5 µM.
